In US5656608A (priority 1995, dated 1997):
Read-outs that look alike come from different tables or passages of the source.

Key:
[1] = tested on: ethanol concentration in breath, feces, urine, blood and stomach; settings: for ethanol concentration, Feces / ethanol concentration, Stomach: * p < 0.05
Method: (§2) In Male Wistar rats, weighing 300 to 320 mg each, intragastric cannulas were inserted as described by Tsukamoto and French. Cannulas were tunnelled subcutaneously to the dorsal aspect of the neck and attached to infusion pumps by means of a spring-tether device and swivel allowing complete mobility of rats in metabolic cages.
(§3) A liquid diet described by Thompson and Reitz was used.
Concentration of ethanol in urine, which are representative of blood alcohol levels were measured daily. Rats were housed in metabolic cages that separated urine from feces, and urine was collected over 24 hours in bottles containing mineral oil to prevent evaporation.
ANOVA or Student's t-test was used for determination of statistical significance as appropriate. […] A p value less than 0.05 was selected before the study as the level of significance.

[2] = tested on: rat liver (previously anoxic pericentral regions); test: cells; settings: for IC50: Rattus norvegicus
Method: Animals used: Male Sprague-Dawley rats weighing between 180-210 g and fed a Purina diet. Rats were fasted for 24 h prior to surgery.
Liver Perfusion: Rats were anesthetized with pentobarbital sodium (50 mg) before surgery and livers were removed surgically and perfused via a cannula inserted into the portal vein with Krebs-Henseleit bicarbonate buffer (pH 7.4, 37° C.) saturated with an oxygen-carbon dioxide (95:5) mixture in a non-recirculating system (Krebs-Henseleit, 1932). After surgery, livers were perfused at flow rates around 1 ml/g/min for 75 minutes (low-flow). Subsequently, livers were perfused at normal flow rates (4 ml/g/min) for 40 minutes (reflow).
Lactate dehydrogenase (LDH): LDH activity in the perfusate was determined using standard enzymatic techniques (Bergmeyer, 1988). […] After cooling, samples were centrifuged at 1000×g for 10 minutes and the absorbance of the supernatant was determined at 535 nm. Rates of release of LDH expressed per gram wet weight of liver per hour.
Trypan Blue Distribution Time and Histological Procedures: To assess microcirculation and cell death in the liver, trypan blue was infused into the liver at the end of all experiments at final concentrations of 0.2 mM (Belinsky et al., 1984). The time for the liver surface to turn evenly dark blue was recorded. Excess dye was removed by perfusion with Krebs-Henseleit buffer for an additional 10 minutes. Subsequently, livers were perfused with 1% paraformaldehyde for 10 minutes and fixed tissue was embedded in paraffin and processed for light microscopy. Sections were stained only with eosin, a cytoplasmic stain, so that trypan blue could be identified readily in the nuclei of damaged cells.
All nuclei of parenchymal cells in a zone radiating five cells from either periportal or pericentral regions were identified as trypan blue-positive or negative. The percentage of staining was calculated from the number of stained nuclei divided by the total number of cells in any given region.
Statistical Analysis: Student's-t-test or ANOVA was used where appropriate. Differences were considered significant when the p-value was less than 0.05.

[3] = tested on: lipopolysaccharide (LPS) endotoxic shock in rats; settings: for mortality: 5% glycine diet
Method: (§1) The rats were then injected lipopolysaccharide (LPS; 10, 20 and 30 mg/kg resp.) from the tail vein and mortality was assessed 24 hours after the injection.

[4] = tested on: partial hepatic ischemia/reperfusion and LPS injection in rats; settings: glycine diet 3 days; 90 min partial hepatic ischemia/reperfusion; LPS 5 mg/kg; 24 hours; p<0.05; control 0 of 4
Method: A sublethal dose of LPS (5 mg/kg) was injected via tail vein 6 hr after reperfusion.

infection = settings: in vivo
liver and lung = settings: glycine diet; 24 hr after LPS 10 mg/kg
Method: d) Liver and lung specimens for histology were taken 24 hr after injection of LPS (10 mg/kg) and hematoxylin-eosin stained.

in vivo = settings: rat, iv, 10 mg/kg
[5] = tested on: tumour necrosis factor (TNF)
[6] = tested on: Asparate Aminotransferase (AST); settings: for serum AST: 4 weeks, liquid control diet 183 IU/L
Method: as §2, §3
Blood was collected via the tail vein once a week and centrifuged. Serum was stored at -20° C. in a microtube until assayed for AST by standard enzymatic procedures.

liver graft = settings: added to liver graft storage solution; dogs; cited from earlier work
[7] = tested on: liver (steatosis, inflammation and necrosis)
Excerpt: Rats underwent liver biopsy and autopsy after 2 and 4 weeks of treatment with ethanol. Livers were formalin-fixed, embedded in paraffin and stained with hematoxylin and eosin to assess steatosis, inflammation and necrosis. Liver pathology was scored as described by Nanji et al. as follows: steatosis (the percent liver cells containing fat): <25%=1+; <50%=2+; <75%=3+, >75%=4+; inflammation and necrosis: 1 focus per low-power field=1+; 2 or more=2+.

[8] = body weight and ethanol intake during ethanol treatment; type: in vivo, Male Wistar rats; settings: liquid glycine diets; 4 weeks of ethanol
Method: as §2, §3

suspended hepatocytes = settings: injury by calcium ionophores or oxidative stress; cited from earlier work
[9] = tested on: AST (Aspartate Aminotransferase); settings: glycine diet; LPS 10 mg/kg; survivors; untreated fed 2000 IU/L
Method: as §1
b) From the survivors, the liver enzyme AST (Aspartate Aminotransferase; a transaminase) was measured as indication for liver damage.

variety of cells = settings: anoxia, potassium cyanide and t-butyl hydroxide; cited from earlier work
[10] = Table 1, Mean ± S.E.M., ethanol with or without 5% glycine
[11] = Table 1, Mean ± S.E.M., ethanol with or without 5% glycine, ** p < 0.01
[12] = Table 1, Mean ± S.E.M., ethanol with or without 5% glycine, *** p < 0.001
[13] = liquid 2% and 5% glycine diet, 4 weeks

For `CCO` [ethanol, reference compound], which “ethanol concentration, Feces” value [1, 10] is on record?
The value was 82 ± 21.

And the “ethanol concentration, Stomach” value [1, 10]?
The value was 761 ± 625.

What about the “ethanol concentration, Blood Tail Vein” value [1, 11] of the same compound?
Its value is 199 ± 45.

And the “ethanol concentration, Blood Portal” value [1, 12]?
Its value is 357 ± 65.

What about the “ethanol concentration, Breath” value [1, 12] of the same compound?
Its value is 108 ± 12.

And the “ethanol concentration, Urine A.M.” value ([1]; rat, in vivo, po)?
Its value is 184 ± 12.

And the “urine alcohol level, upper end of cyclic fluctuation” value ([1]; rat, in vivo, po)?
Its value is “greater than 300 mg/dl”.

Which results are given for `NCC(=O)O` [glycine]?
LDH release and cell death during reperfusion (in words) [2]: minimized LDH release and cell death almost completely; MDA production during reperfusion [2]: tends to decrease with glycine, changes are not statistically significant; oxygen uptake (indicator of mitochondrial function) [2]: not altered; trypan blue distribution time ([2]; 2 mM glycine, 40 minutes of reperfusion, control about 460 seconds): about 250 seconds; trypan blue distribution time (in words) ([2]; 5 and 40 minutes after reflow): reduced significantly at 5 and 40 minutes after reflow; change of trypan blue distribution time at later vs earlier time point ([2]; 40 vs 5 minutes after reflow): about 2 fold; trypan blue distribution time ([2]; 5 minutes after reperfusion, control 225 seconds, p<0.05, n=5): about 190 seconds; IC50 ([2]; 40 min, read-out: half maximal decrease of trypan blue distribution time, 40 minutes of reflow): 180 µM; IC50 ([2]; read-out: half-maximal decrease of LDH release, rat liver, glycine infused from 10 min before reflow): 180 µM; IC50 ([2]; read-out: half-maximal effect (trypan blue distribution time; cytoprotective effect), reflow liver perfusion): 180 µM; enzyme (LDH) release, dose dependence (in words) ([2]; glycine 0.06-2 mM): minimizes enzyme release in a dose-dependent manner; protection in the rat liver reperfusion model ([2]; physiological concentrations of 240-300 mmol (in humans)): more than half maximal protection; protection against LPS mortality ([3]; 5% glycine diet 3 days, LPS 10 mg/kg, control 50% mortality, p<0.05): 100%; mortality ([3]; LPS 20 mg/kg, control 70%): 30%; mortality ([3]; LPS 30 mg/kg, control 100%): 90%; survival [4]: 5 rats out of 6; protective effect compared with fish oil (infection): more profound and acute than that obtainable by fish oil treatment; liver necrosis (histology) (liver and lung): less necrosis in the liver; pulmonary edema (histology) (liver and lung): less pulmonary edema; concentration at 6 h (in vivo): 1730 ± 515 µM; time of serum TNF peak after injection ([5]; 5% glycine diet, LPS 10 mg/kg, control 60 min): 150 min; suppression of serum TNF increase ([5]; 5% glycine diet, LPS 10 mg/kg, p<0.05, control over 6000 pg/ml): at least 50%; release of TNF into the systemic circulation ([5]; following endotoxic shock): significantly reduces the release of TNF; increase of serum AST (in words) ([6]; both glycine treatments, every point during the study): attenuated significantly; serum AST ([6]; liquid 2% glycine diet): 66 IU/L; serum AST ([6]; liquid 5% glycine diet): 100 IU/L; survival (liver graft): did not improve survival; fatty changes (steatosis) [7, 13]: attenuated; necrosis and inflammation [7, 13]: almost totally absent; inflammation (statistics) ([7]; liquid glycine diets): only a tendency for reduction; reductions of steatosis and necrosis (statistics) ([7]; liquid glycine diets): statistically significantly; liver injury due to chronic intragastric ethanol exposure ([7]; rat): prevents liver injury; body weight [8]: no significant differences in body weight; protection of suspended hepatocytes (suspended hepatocytes): not found to protect; AST level [9]: markedly and significantly reduced; ischemic/endotoxic liver and organ damage, activation of Kupffer cells (Kupffer cells): prevents or at least substantially suppresses; ethanol concentration, Feces [1, 10]: 15 ± 11; ethanol concentration, Stomach [1, 10]: 26; ethanol concentration, Blood Tail Vein [1, 11]: 21 ± 13; ethanol concentration, Urine A.M. [1, 11]: 26 ± 25; ethanol concentration, Blood Portal [1, 12]: 10 ± 7; ethanol concentration, Breath [1, 12]: 5 ± 4; ethanol concentration, Urine 24 hr [1, 12]: 24 ± 8; alcohol in stomach contents (in words) ([1]; glycine-treated rats): reduced dramatically; reduction of the mean urine alcohol concentration ([1]; liquid 2% glycine diet): 50%; reduction of the mean urine alcohol concentration ([1]; liquid 5% glycine diet): 70%; daily urine alcohol concentration (in words) ([1]; liquid glycine diets): very low but were still cyclic; transfer of alcohol from the stomach into the blood ([1]; rat, in vivo): prevents the transfer of alcohol from the stomach into the blood; cell damage (variety of cells): reduce cell damage
